ChEMBL document CHEMBL4823309, “The Potential of c-KIT Kinase inhibitors in Cancer Treatment” (ACS Med Chem Lett, 2021)

Assay: Inhibition of C-KIT V654A/560-576 deletion mutant in human GIST-430/654 cells assessed as reduction in c-Kit autophosphorylation at […] residue incubated for 45 mins by Luminex bead based assay
Format: cell-based
Conditions: GIST-430/654, 0.75 h

| IC50 [nM] | Compound |
| --- | --- |
| 45 | Cn1ncc(-c2ccc(CNc3cc(-c4cnc5cc(OCCCN6CCCC6)ccn45)ncn3)cc2)n1 |
| 55 | COc1ccn2c(-c3cc(NCc4ccc(-c5cnn(C)c5)cc4)ncn3)cnc2c1 |
| 39 | COCCN1CCC(COc2ccn3c(-c4cc(NCc5ccc(-c6cnn(C)n6)cc5)ncn4)cnc3c2)CC1 |
| 140 | CNC1CN(c2ccn3c(-c4cc(NCc5ccc(-c6cnn(C)c6)cc5)ncn4)cnc3c2)C1 |
| 78 | COc1ccn2c(-c3cc(NCc4ccc(-c5cnn(C)n5)cc4)ncn3)cnc2c1 |
| 74 | Cc1nc(-c2ccc(CNc3cc(-c4cnc5cc(OCCO)ccn45)ncn3)cc2)co1 |
| 40 | Cn1ncc(-c2ccc(CNc3cc(-c4cnc5cc(OCCN6CC7(COC7)C6)ccn45)ncn3)cc2)n1 |
| 61 | CN1CC(COc2ccn3c(-c4cc(NCc5ccc(-c6cnn(C)c6)cc5)ncn4)cnc3c2)C1 |
| 100 | Cn1cc(-c2ccc(CNc3cc(-c4cnc5cc(OCCN6CCC[C@@H]7OCC[C@@H]76)ccn45)ncn3)cc2)cn1 |
| 270 | Cn1cc(-c2ccc(CNc3cc(-c4cnc5cc(OC6CCOC6)ccn45)ncn3)cc2)cn1 (configuration not stated) |
| 190 | c1ccn2c(-c3cc(NCc4ccc(-n5cccn5)cc4)ncn3)cnc2c1 |
| 330 | Cn1cc(-c2ccc(CNc3cc(-c4cnc5cc(CCN6CCN(C7COC7)CC6)ccn45)ncn3)cc2)cn1 |
